These results are taken from PubChem BioAssay (NCI).

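Compound exposure: 48 hours, 5 concentrations, 96-well plates. Here, GI50 denotes the concentration required for 50% inhibition of growth. The concentration for full growth arrest is given as TGI.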

Holding throughout (test): NCI anticancer screen, dose series, 48 h
Assay [1] concerns A498 renal.
The test system of assay [2] is CAKI-1 renal.
The test system of assay [3] is COLO 205 colon.
In assay [4] the test system is EKVX NSCLC.
The test system of assay [5] is HCT-15 colon.
In assay [6] the test system is HL-60(TB) leukemia.
Assay [7] concerns MALME-3M melanoma.
For assay [8], the system named is MCF7 breast.
Assay [9] deals with SF-268 CNS.
The subject of assay [10] is SNB-19 CNS.

For the compound `C/C=C(\C)c1cc(=O)c2c(C)cc3c(c2o1)C(=O)c1c(O)c(C2CC(C)(N(C)C)C(OC(C)=O)C(C)O2)cc(C2CC(N(C)C)C(O)C(C)O2)c1C3=O` (stereo not given), the TGI was 11.1 µM in assay [1]; 5.1 µM in [2]; 3.05 µM in assay [3]; 5.38 µM in assay [4]; 12.2 µM in assay [5]; greater than 50 µM in assay [6]. Moreover, the TGI in [7] worked out at 1.13 µM; in [8] it was 7.85 µM; in assay [9], 9.56 µM; in [10], 10.9 µM.
Turning to `COC(COC(N)=O)C1=C(N2CC2)C(=O)C(C)=C(N2CC2)C1=O` (stereo not given), the TGI stood at 0.267 µM in [1]; 0.085 µM in assay [2]; 0.389 µM in [3]; 1.24 µM in assay [4]; 0.762 µM in assay [5]; 2.72 µM in [6]. Moreover, the TGI in assay [7] turned out to be 0.301 µM; in [8], 1 µM; in [9] it was 0.624 µM; in assay [10], 1.75 µM.
As to `Cc1nn(CNc2ccccc2C(F)(F)F)c(=S)n1/N=C/c1cccc2cccnc12`, the GI50 in assay [1] was greater than 100 µM; in assay [2] it was greater than 100 µM; in [3], greater than 100 µM; in assay [4] it was greater than 100 µM; in assay [5] it was 24.3 µM; in assay [6] it was 40.6 µM. Besides, the GI50 is greater than 100 µM in assay [7], 54.9 µM in assay [8], 32.5 µM in [9] and greater than 100 µM in assay [10]. The TGI in [1], in [2], in assay [3], in assay [4], in assay [5] and in [6] was greater than 100 µM each time. The TGI in assay [7], in [8], in assay [9] and in [10] was greater than 100 µM each time.
`CCc1nc(N)nc(N)c1-c1ccc(Cl)c([N+](=O)[O-])c1`: the TGI in assay [1] was greater than 96 µM; in assay [2], greater than 100 µM; in [3], 55.5 µM; in assay [4], greater than 100 µM; in assay [5], greater than 100 µM; in assay [6], greater than 51.5 µM. The TGI is greater than 100 µM in assay [7], greater than 89.7 µM in assay [8], greater than 100 µM in assay [9] and greater than 100 µM in assay [10].
Regarding `Cc1ccc(O)c(NC(=O)c2cccc(Nc3ccnc(C(F)(F)F)c3)c2)c1`, the GI50 was 5 µM in [1]; 11 µM in assay [2]; 14.6 µM in [3]; 3.37 µM in assay [4]; 15.5 µM in assay [5]; 0.592 µM in assay [6]. The GI50 in assay [7] is 19.2 µM; in assay [8], 4.21 µM; in [9], 13.3 µM; in assay [10] it was 17.9 µM. For the same compound, the TGI in [1] is 20.5 µM; in [2] it was 31.8 µM; in assay [3], 33.7 µM; in assay [4], 59.4 µM; in assay [5] it was 42.8 µM; in [6], 11.1 µM. Also, the TGI in [7] came out at 78.5 µM; in assay [8], 26.5 µM; in [9] it was 39 µM; in assay [10], 69.8 µM.
For the compound `O=C1N[C@@H]2[C@@H](O)[C@@H](O)[C@H](O)C[C@H]2c2cc3c(c(O)c21)OCCO3`, the GI50 in assay [1] was 0.392 µM; in assay [2], 0.989 µM; in assay [3], 0.162 µM; in [4] it was 0.323 µM; in assay [5], 0.27 µM; in assay [6], 0.19 µM. The GI50 in [7] is 0.209 µM; in assay [8], 0.154 µM; in assay [9] it was 0.247 µM; in assay [10], 0.179 µM. Besides, the TGI in [1] stood at 1.58 µM; in [2] it was 6.14 µM; in assay [3], 0.405 µM; in assay [4], 1.85 µM; in assay [5], 1.8 µM; in assay [6], 0.599 µM. Also, the TGI in assay [7] was determined as 0.731 µM; in assay [8], 0.796 µM; in assay [9], 1.08 µM; in [10], 1.02 µM.
With `O=c1oc2ccc(I)cc2c(=O)n1-c1ccc(Br)cc1F`, the GI50 is 0.225 µM in assay [1]; 0.375 µM in [2]; 3.19 µM in [3]; 1.34 µM in [4]; 1.28 µM in assay [5]; 0.588 µM in assay [6]. Also, the GI50 in assay [7] was 0.462 µM; in [8], 1.34 µM; in [9], 0.673 µM; in [10], 0.434 µM. Also, the TGI was determined as 0.697 µM in [1]; 3.23 µM in [2]; 11.6 µM in assay [3]; 7.11 µM in [4]; 7.89 µM in [5]; 3.74 µM in assay [6]. Besides, the TGI in [7] was 2.55 µM; in assay [8], 9.22 µM; in assay [9] it was 8.52 µM; in assay [10], greater than 63.5 µM.
Regarding `COc1cc2c(cc1OC(C)C)[C@H](c1ccc(Cl)cc1)N(c1ccc(N(C)CC3CCC(N4CCN(C)C(=O)C4)CC3)cc1)C(=O)C2` (stereo not given in full), the GI50 in assay [1] is 1.38 µM; in [2], 0.345 µM; in [3] it was 2.59 µM; in assay [4], 1.93 µM; in assay [5] it was 1.95 µM; in [6], 2.19 µM. Further, the GI50 in assay [7] is 0.09 µM; in [8], 0.271 µM; in assay [9], 3.01 µM; in assay [10] it was 4.07 µM. Besides, the TGI in assay [1] amounted to 6.49 µM; in assay [2], 4.99 µM; in assay [3] it was 7.36 µM; in [4] it was 7.81 µM; in [5], 5.79 µM; in assay [6] it was 5.87 µM. The TGI in [7] is 2.74 µM; in assay [8], 3.61 µM; in assay [9] it was 8.72 µM; in [10] it was 14.7 µM.
As to `CN(Cc1ccccc1)Cn1ccnc1`, the TGI is greater than 100 µM in assay [1]; greater than 100 µM in assay [2]; greater than 86.7 µM in assay [3]; greater than 100 µM in assay [4]; greater than 100 µM in [5]; greater than 100 µM in assay [6]. Also, the TGI is 50.4 µM in assay [7], greater than 100 µM in assay [8], greater than 100 µM in [9] and greater than 100 µM in assay [10].
